{"source": "paper PMC8290231", "about": "(Cancer Medicine, 2021)", "key": {"Ba/F3‐FGFR1‐V561F": {"system": "Ba/F3‐FGFR1‐V561F", "test": "Cell cycle analysis by flow cytometry (propidium iodide)", "format": "cell-based", "method": "About 6 × 10^5 cells were re‐suspended in 150 μl of BD Cytofix/Cytoperm buffer solution I for 10 min at room temperature. The cell suspensions were added with BD Cytofix/Cytoperm buffer solution II and incubated with another 10 min at room temperature, and then incubated with 200 μl of propidium iodide buffer (0.1 mg/ml) in the dark for 10 min at 4℃. Assays were performed with a Guava easyCyte flow cytometer (Merck, USA)."}, "[1]": {"system": "Ba/F3‐FGFR1‐V561F xenograft", "test": "Mouse xenograft tumor model", "format": "in vivo, CB17‐SCID mice", "excerpt": "(§1) All animal studies were approved by the Institutional Animal Care and Use Committee. Male CB17‐SCID mice were purchased from Vital River Laboratory Animal Technology Inc. (Beijing, China). The right flanks of SCID mice were subcutaneously injected with 2 x 10^6 Ba/F3‐FGFR1, Ba/F3‐FGFR1‐V561F, or Ba/F3‐FGFR1‐V561M cells, respectively. When the average tumor volume reached 100–200 mm^3, mice bearing tumor were randomly divided into groups and treated with compounds or vehicle. All the compounds were suspended in 0.5% CMC‐Na aqueous solution. […] The body weight and tumor volume of animals were measured once every 2 days. Tumor volumes were calculated as L×W×W/2, where L and W are the length and width of the tumor, respectively. At the experiment terminal, tumor tissues were dissected, paraffin embedded, and sectioned for hematoxylin and eosin (H&E), immunohistochemistry (IHC), and TUNEL analysis."}, "Ba/F3‐FGFR1 xenograft": {"system": "Ba/F3‐FGFR1 xenograft", "test": "Mouse xenograft tumor model", "format": "in vivo, CB17‐SCID mice", "conditions": "for tumor growth inhibition (TGI): oral gavage", "excerpt": "as §1"}, "Ba/F3(+IL‐3)": {"system": "Ba/F3(+IL‐3)", "test": "CCK-8 proliferation assay in parental Ba/F3 cells", "format": "cell-based", "conditions": "Mus musculus, read-out: IC50 (μΜ) Ba/F3(+IL‐3)", "method": "The Ba/F3 cell lines stably expressing FGFR1, FGFR1‐V561M, FGFR1‐V561F, FGFR1‐K656N, and FGFR1‐K656E were self‐established through electroporation pCDNA3.1‐TEL plasmids using the Amaxa Cell Line Nucleofector Kit V (Lonza, Cologne, Germany). Stable cell lines were selected by G418 (Merck, USA) and then withdrawal of IL‐3 (R&D). […] Parental Ba/F3 cells were maintained in RPMI 1640 supplemented with 10% FBS, 100 U/ml of penicillin, […] of streptomycin, and 10 ng/ml of IL‐3, while all Ba/F3 stable cell lines were cultured in the same medium without IL‐3.\nCells were seeded in 96‐well plate in complete medium (1000–6000 cells/well) and cultured for overnight. Then the cells were exposed to gradient concentrations (0.0005–10 μM) of compounds. Cell proliferation was analyzed by Cell Counting Kit 8 (CK04, Dojindo Laboratories, Japan) after co‐incubation for a further 72 h. IC50 values were calculated by fitting of concentration–response curves using GraphPad Prism 8.01 software. Each assay was repeated at least three times.\nThere is, however, no commercially available FGFR1 mutant kinase to validate this. Therefore, we constructed Ba/F3 model cells stably expressing FGFR1‐WT, K656E, K656N, V561M, and V561F mutations."}, "[2]": {"system": "FGFR1 signal pathway in Ba/F3‐FGFR1‐V561M", "test": "Western blot of FGFR1 signal pathway", "format": "cell-based", "conditions": "300 nM", "method": "(§2) Cells were treated with different concentrations of compound or DMSO for indicated time. Then, cells were lysed with 1 × SDS sample lysis buffer (recommended by CST). […] After blocking with 5% BSA in TBST solution (0.5% Tween‐20) at room temperature for 4 hrs, the membranes were incubated with the corresponding primary antibody (1:2000–1:200) at 4℃ overnight. After washing with TBST for 3–5 times, the HRP‐conjugated secondary antibodies were incubated for 2 hrs. The protein signals were detected with Amersham Imager 600 system (GE, Boston, MA, USA) using an ECL western blotting detection kit (Thermo Fisher Scientific, Waltham, MA, USA).\n(§3) Cell lysates were separated by sodium dodecyl sulfate‐polyacrylamide gel electrophoresis (SDS‐PAGE) and analyzed by western blot for phosphorylated FGFR1, FGFR1, phosphorylated FRS2, FRS2, phosphorylated AKT (Ser473), AKT, phosphorylated Erk, and Erk. GAPDH was used as a control"}, "Ba/F3‐FGFR1": {"system": "Ba/F3‐FGFR1", "test": "Apoptosis assay by flow cytometry (Annexin V / 7-AAD)", "format": "cell-based", "conditions": "Ba/F3‐FGFR1, 100 nM, 48 h", "method": "After incubation, cells were collected and washed twice with pre‐cold PBS. About 6 × 10^5 cells were resuspended in 100 μl of 1× BD binding buffer solution (#556454, BD), and then stained with 7‐ADD (#559925, BD) and Annexin V‐PE (#556422, BD) in the dark for 15 min. Finally, 400 μl of 1×BD binding buffer solution were added to stop dyeing. The cells were then measured on a Guava easyCyte flow cytometer (Merck, USA)."}, "FGFR1": {"target": "T1, FGFR1 (Homo sapiens, UniProt P11362)", "T1 construct": "purchased Invitrogen (Waltham, MA, USA)", "T1 sequence (P11362 22-822)": "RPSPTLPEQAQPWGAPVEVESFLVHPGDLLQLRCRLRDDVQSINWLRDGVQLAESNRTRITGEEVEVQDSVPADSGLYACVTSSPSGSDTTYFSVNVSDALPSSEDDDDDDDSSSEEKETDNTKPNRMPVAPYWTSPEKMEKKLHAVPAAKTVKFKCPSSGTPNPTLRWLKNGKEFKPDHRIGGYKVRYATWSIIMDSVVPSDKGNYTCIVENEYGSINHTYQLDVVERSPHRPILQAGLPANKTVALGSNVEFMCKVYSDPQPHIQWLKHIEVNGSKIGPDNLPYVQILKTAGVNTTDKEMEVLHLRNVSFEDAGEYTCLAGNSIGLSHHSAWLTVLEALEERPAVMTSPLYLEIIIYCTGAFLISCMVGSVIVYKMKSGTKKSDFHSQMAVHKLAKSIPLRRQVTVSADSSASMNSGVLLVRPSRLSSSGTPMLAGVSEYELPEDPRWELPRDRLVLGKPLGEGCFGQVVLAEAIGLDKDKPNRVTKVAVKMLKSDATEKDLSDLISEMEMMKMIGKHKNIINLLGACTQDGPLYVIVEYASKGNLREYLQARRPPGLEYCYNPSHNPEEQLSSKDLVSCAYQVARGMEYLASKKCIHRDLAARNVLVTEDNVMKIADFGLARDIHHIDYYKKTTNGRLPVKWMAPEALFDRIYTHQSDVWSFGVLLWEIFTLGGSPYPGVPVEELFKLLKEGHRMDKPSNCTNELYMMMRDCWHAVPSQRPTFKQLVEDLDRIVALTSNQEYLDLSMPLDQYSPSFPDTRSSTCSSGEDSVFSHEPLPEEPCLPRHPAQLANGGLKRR", "test": "KINOMEscan binding affinity assay"}, "[3]": {"system": "FGFR1 signal pathway in H1581", "test": "Western blot of FGFR1 signal pathway", "format": "cell-based", "method": "as §2, §3"}, "[4]": {"system": "FGFR1 signal pathway in Ba/F3‐FGFR1", "test": "Western blot of FGFR1 signal pathway", "format": "cell-based", "conditions": "Ba/F3‐FGFR1, 4 h, 3.7 nM to 300 nM", "method": "as §2, §3"}, "[5]": {"system": "FGFR1 signal pathway in A204", "test": "Western blot of FGFR1 signal pathway", "format": "cell-based", "method": "as §2, §3"}, "[6]": {"system": "FGFR1 signal pathway in A549", "test": "Western blot of FGFR1 signal pathway", "format": "cell-based", "method": "as §2, §3"}, "FGFR4 [7]": {"target": "T2, FGFR4 (Homo sapiens, UniProt P22455)", "T2 sequence (P22455 22-802)": "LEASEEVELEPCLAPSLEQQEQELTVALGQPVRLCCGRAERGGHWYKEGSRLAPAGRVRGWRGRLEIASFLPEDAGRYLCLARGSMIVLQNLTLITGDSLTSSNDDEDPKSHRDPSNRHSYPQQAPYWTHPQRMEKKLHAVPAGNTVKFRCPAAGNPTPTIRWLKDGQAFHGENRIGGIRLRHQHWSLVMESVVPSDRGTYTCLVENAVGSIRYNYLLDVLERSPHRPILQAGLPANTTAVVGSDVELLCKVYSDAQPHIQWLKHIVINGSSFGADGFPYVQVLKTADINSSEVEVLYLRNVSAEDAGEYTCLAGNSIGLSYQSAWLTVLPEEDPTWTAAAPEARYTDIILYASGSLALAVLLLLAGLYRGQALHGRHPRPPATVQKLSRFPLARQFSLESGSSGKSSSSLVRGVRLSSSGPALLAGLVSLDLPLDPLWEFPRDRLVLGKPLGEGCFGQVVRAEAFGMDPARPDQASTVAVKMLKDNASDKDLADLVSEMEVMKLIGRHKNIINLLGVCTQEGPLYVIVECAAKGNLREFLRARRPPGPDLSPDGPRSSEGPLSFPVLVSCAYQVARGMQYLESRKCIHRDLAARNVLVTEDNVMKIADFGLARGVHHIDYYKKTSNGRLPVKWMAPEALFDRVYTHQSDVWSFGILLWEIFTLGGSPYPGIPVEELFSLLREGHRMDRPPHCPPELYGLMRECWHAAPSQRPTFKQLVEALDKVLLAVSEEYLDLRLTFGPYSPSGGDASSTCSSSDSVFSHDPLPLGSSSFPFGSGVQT", "test": "FRET-based Z′-Lyte kinase assay", "format": "biochemical"}, "FGFR3": {"target": "FGFR3 (Homo sapiens, UniProt P22607)", "sequence (P22607 23-806)": "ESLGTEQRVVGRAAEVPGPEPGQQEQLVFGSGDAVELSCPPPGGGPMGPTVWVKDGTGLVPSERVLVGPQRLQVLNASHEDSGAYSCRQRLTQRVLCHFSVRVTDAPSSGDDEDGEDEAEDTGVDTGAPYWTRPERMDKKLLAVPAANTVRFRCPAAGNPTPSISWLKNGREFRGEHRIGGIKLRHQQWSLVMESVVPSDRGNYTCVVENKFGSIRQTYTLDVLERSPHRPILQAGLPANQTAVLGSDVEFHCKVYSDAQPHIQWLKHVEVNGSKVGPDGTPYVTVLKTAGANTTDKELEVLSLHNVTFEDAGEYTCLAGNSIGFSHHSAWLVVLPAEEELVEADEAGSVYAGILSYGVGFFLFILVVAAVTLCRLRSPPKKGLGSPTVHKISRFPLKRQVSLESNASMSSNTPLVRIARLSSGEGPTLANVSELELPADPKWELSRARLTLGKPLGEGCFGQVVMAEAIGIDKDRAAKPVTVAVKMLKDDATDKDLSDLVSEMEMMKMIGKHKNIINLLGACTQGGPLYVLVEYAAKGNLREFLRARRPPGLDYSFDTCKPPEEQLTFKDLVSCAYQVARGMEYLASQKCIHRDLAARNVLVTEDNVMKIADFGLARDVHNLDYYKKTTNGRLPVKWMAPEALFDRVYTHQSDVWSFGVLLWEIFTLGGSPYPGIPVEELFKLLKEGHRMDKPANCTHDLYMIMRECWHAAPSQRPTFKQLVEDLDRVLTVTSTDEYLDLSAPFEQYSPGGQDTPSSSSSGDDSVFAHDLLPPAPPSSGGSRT", "test": "FRET-based Z′-Lyte kinase assay", "format": "biochemical"}, "FGFR4 [8]": {"target": "T2, FGFR4", "test": "KINOMEscan binding affinity assay"}}, "note": "Read-outs that look alike come from different tables or passages of the source."}
{"smiles": "CCN1CCN(c2ccc(Nc3cc(N(C)C(=O)Nc4c(Cl)c(OC)cc(OC)c4Cl)ncn3)cc2)CC1", "note": "[BGJ398]", "values": [{"measurement": "effect on cell cycle", "setting": "Ba/F3‐FGFR1‐V561F; 1000 nM", "result": "weak effect"}, {"measurement": "tumor growth inhibition (TGI)", "setting": "[1]; 30 mg/kg, oral gavage, once every day", "result": 2.4, "unit": "%"}, {"measurement": "tumor growth inhibition (TGI)", "setting": "Ba/F3‐FGFR1 xenograft; 10 mg/kg, once every day", "result": 64.2, "unit": "%"}, {"measurement": "IC50", "setting": "Ba/F3(+IL‐3); BaF3, parental cells with IL-3, CCK-8, 72 h", "result": "5660 ± 880", "unit": "nM"}, {"measurement": "activation of FGFR1 and its signal pathway", "setting": "[2]", "result": "no effects"}]}
{"smiles": "Cc1ccc(C(=O)Nc2ccc(CN3CCN(C)CC3)c(C(F)(F)F)c2)cc1C#Cc1cnc2[nH]ncc2c1", "note": "[GZD824]", "values": [{"measurement": "G0/G1 phase", "setting": "Ba/F3‐FGFR1‐V561F; 100 nM, 24 h", "result": 71.13, "unit": "%"}, {"measurement": "tumor growth inhibition (TGI)", "setting": "[1]; 20 mg/kg, p.o., q2d", "result": 73.4, "unit": "%"}, {"measurement": "IHC (pFGFR1) and TUNEL in tumor tissues", "setting": "[1]; 12 days", "result": "inhibits the FGFR1 activation and induces apoptosis"}, {"measurement": "tumor growth inhibition (TGI)", "setting": "Ba/F3‐FGFR1 xenograft; 20 mg/kg", "result": 76.5, "unit": "%"}, {"measurement": "IHC (pFGFR1) and TUNEL in tumor tissues", "setting": "Ba/F3‐FGFR1 xenograft; 12 days", "result": "inhibits the FGFR1 activation and induces apoptosis"}, {"measurement": "apoptosis", "setting": "Ba/F3‐FGFR1", "result": 65.73, "unit": "%"}, {"measurement": "Kd", "setting": "FGFR1", "result": "7.3 ± 0.3", "unit": "nM"}, {"measurement": "IC50", "setting": "Ba/F3(+IL‐3); BaF3, 72 h", "result": "1710 ± 590", "unit": "nM"}, {"measurement": "dose with obvious inhibition of pFRS2 and pERK", "setting": "[3]; H1581", "result": "≥ 3.7", "unit": "nM"}, {"measurement": "total level of FGFR1 protein expression", "setting": "[3]; H1581", "result": "no obvious effect"}, {"measurement": "FGFR1 phosphorylation, downstream FRS2 and ERK1/2", "setting": "[3]; H1581, 4 h, 3.7 nM to 300 nM", "result": "dose‐dependent inhibition"}, {"measurement": "effect on pAKT", "setting": "[3]; H1581, even at 300 nM", "result": "no effect"}, {"measurement": "FGFR1 phosphorylation, downstream FRS2 and ERK1/2", "setting": "[4]", "result": "dose‐dependent inhibition"}, {"measurement": "dose with obvious inhibition of pFRS2 and pERK", "setting": "[5]; A204", "result": "≥ 3.7", "unit": "nM"}, {"measurement": "total level of FGFR1 protein expression", "setting": "[5]; A204", "result": "no obvious effect"}, {"measurement": "effect on pAKT", "setting": "[5]; A204, even at 300 nM", "result": "no effect"}, {"measurement": "total level of FGFR1 protein expression", "setting": "[6]; A549", "result": "no obvious effect"}, {"measurement": "effects on FGFR1 downstream signal pathway", "setting": "[6]; A549, negative control", "result": "very weak"}, {"measurement": "IC50", "setting": "FGFR4 [7]", "result": "30.3 ± 21.7", "unit": "nM"}, {"measurement": "IC50", "setting": "FGFR3", "result": "8.1 ± 0.15", "unit": "nM"}, {"measurement": "EC50", "setting": "FGFR3; Figure 1B curve fit", "result": 8.2, "unit": "nM"}, {"measurement": "Kd", "setting": "FGFR4 [8]", "result": "19 ± 1.4", "unit": "nM"}]}
